Laboratory results published in patent publication US12280088B2, “Dry powder formulation of caveolin-1 peptides and methods of use thereof” (BOARD OF REGENTS, THE UNIVERSITY OF TEXAS SYSTEM, priority 2018, dated 2025).
In brackets after ≈: the same amount, converted by molar mass. Where two headings read alike, the source gives them in different places. Square brackets hold non-standard residues; d marks the D form. Peptide text beside a SMILES is read from it. Orn = NCCC[C@H](N)C(=O)O

Legend:
[1] = pH-solubility of polypeptide variants; assay type: physicochemical; conditions: read-out: pH-solubility, Concentration; for solubility thermodynamic at 3 min: a: precipitate, supernatant assayed; for solubility at 3 min: b: high viscous solution, aliquot assayed
Protocol: (§1) Solubility study of variants was performed by adding variants powders into solvent in concentration of 5 mg/ml and then vortexing for 3 min. Observe the appearance of solutions in 5 min. Add more powder (˜5 mg/ml each time) and repeat vortex and observe until precipitation or gelation occurs.

[2] = Appearance of solutions in solubility study of variants; assay type: physicochemical
Protocol: as §1

| solubility thermodynamic at 3 min ([1]; pH 4.5) [mg/mL] | solubility thermodynamic at 3 min ([1]; pH 5.5) [mg/mL] | solubility thermodynamic at 3 min ([1]; pH 6.5) [mg/mL] | solubility thermodynamic at 3 min ([1]; pH 7.5) [mg/mL] | solubility thermodynamic at 3 min ([1]; pH 8.5) [mg/mL] | Appearance of solutions ([2]; pH 4.5, 5 mg/ml) | Appearance of solutions ([2]; pH 4.5, 10 mg/ml) | Appearance of solutions ([2]; pH 4.5, 15 mg/ml) | Appearance of solutions ([2]; pH 4.5, 20 mg/ml) | Appearance of solutions ([2]; pH 4.5, 25 mg/ml) | Appearance of solutions ([2]; pH 7.5, 5 mg/ml) | Appearance of solutions ([2]; pH 7.5, 10 mg/ml) | Appearance of solutions ([2]; pH 8.5, 5 mg/ml) | Appearance of solutions ([2]; pH 8.5, 10 mg/ml) | solubility at 3 min ([1]; pH 4.5) [mg/mL] | Appearance of solutions ([2]; pH 4.5, 40 mg/ml) | Appearance of solutions ([2]; pH 7.5, 15 mg/ml) | Appearance of solutions ([2]; pH 7.5, 20 mg/ml) | Appearance of solutions ([2]; pH 8.5, 15 mg/ml) | Appearance of solutions ([2]; pH 8.5, 20 mg/ml) | Structure (SMILES) | also measured |
| --- | --- | --- | --- | --- | --- | --- | --- | --- | --- | --- | --- | --- | --- | --- | --- | --- | --- | --- | --- | --- | --- |
| 25.4 ± 0.8 (≈ 18.5 mM) | 4 ± 0.2 (≈ 2.91 mM) | 5.9 ± 0.4 (≈ 4.29 mM) | 16.7 ± 0.5 (≈ 12.1 mM) | 10.8 ± 1.1 (≈ 7.86 mM) | Clear | Clear | Clear | Clear | Clear | Clear | Clear | Clear | Clear |  |  |  |  |  |  | CC(C)[C@H](NC(=O)[C@@H](NC(=O)[C@H](Cc1ccccc1)NC(=O)[C@@H](NC(=O)[C@@H](NC(=O)[C@H](Cc1ccccc1)NC(=O)[C@H](CO)NC(=O)[C@H](C)NC(=O)[C@@H](N)CCCCN)[C@@H](C)O)[C@@H](C)O)[C@@H](C)O)C(=O)N[C@H](C(=O)N[C@@H](CCCCN)C(=O)NCC(=O)N[C@@H](CO)C(=O)O)[C@@H](C)O [SEQ ID NO.4] (H-KASFTTFTVTKGS-OH) |  |
|  | 22.3 ± 0.1 (≈ 12.1 mM) |  |  |  | Clear | Clear | Clear | Clear | Clear | Clear | Clear | Clear | Clear | ≥ 32 | Gel | Clear | Clear | Clear | Clear | CC(C)[C@H](NC(=O)[C@@H](NC(=O)[C@H](Cc1ccccc1)NC(=O)[C@@H](NC(=O)[C@@H](NC(=O)[C@H](Cc1ccccc1)NC(=O)[C@H](CO)NC(=O)[C@H](C)NC(=O)[C@H](CCCCN)NC(=O)CNC(=O)[C@H](CCC(=O)O)NC(=O)[C@@H](C)NC(=O)[C@@H](C)N)[C@@H](C)O)[C@@H](C)O)[C@@H](C)O)C(=O)N[C@H](C(=O)N[C@@H](CCCCN)C(=O)NCC(=O)N[C@@H](CO)C(=O)N[C@H](C)C(=O)N[C@H](C)C(N)=O)[C@@H](C)O [SEQ ID NO.7] (H-[dA][dA]EGKASFTTFTVTKGS[dA][dA]-NH2) | solubility at 3 min ([1]; pH 6.5): ≥ 30.5 mg/mL; solubility at 3 min ([1]; pH 7.5): ≥ 35.3 mg/mL; solubility at 3 min ([1]; pH 8.5): ≥ 23.8 mg/mL; Appearance of solutions ([2]; pH 5.5, 5 mg/ml): Clear; Appearance of solutions ([2]; pH 5.5, 10 mg/ml): Clear; Appearance of solutions ([2]; pH 5.5, 15 mg/ml): Clear; Appearance of solutions ([2]; pH 7.5, 25 mg/ml): Clear; Appearance of solutions ([2]; pH 8.5, 25 mg/ml): Clear |
|  | 23.6 ± 0.6 (≈ 12.5 mM) | 27.3 ± 1.2 (≈ 14.5 mM) | 28.3 ± 2.2 (≈ 15 mM) | 20.6 ± 2.4 (≈ 10.9 mM) | Clear | Clear | Clear | Clear | Gel | Clear | Clear | Clear | Clear | ≥ 24.2 |  | Clear |  | Clear | Clear | CC(=O)N[C@H](C)C(=O)N[C@H](C)C(=O)N[C@@H](CCC(=O)O)C(=O)NCC(=O)N[C@@H](CCCCN)C(=O)N[C@@H](C)C(=O)N[C@@H](CO)C(=O)N[C@@H](Cc1ccccc1)C(=O)N[C@H](C(=O)N[C@H](C(=O)N[C@@H](Cc1ccccc1)C(=O)N[C@H](C(=O)N[C@H](C(=O)N[C@H](C(=O)N[C@@H](CCCCN)C(=O)NCC(=O)N[C@@H](CO)C(=O)N[C@H](C)C(=O)N[C@H](C)C(N)=O)[C@@H](C)O)C(C)C)[C@@H](C)O)[C@@H](C)O)[C@@H](C)O [SEQ ID NO.8] (Ac-[dA][dA]EGKASFTTFTVTKGS[dA][dA]-NH2) | Appearance of solutions ([2]; pH 5.5, 5 mg/ml): Clear |
| 33.9 ± 0.9 (≈ 26.3 mM) | 3.6 ± 0.8 (≈ 2.79 mM) | 5.5 ± 0.7 (≈ 4.27 mM) | 19.1 ± 0.1 (≈ 14.8 mM) | 14.6 ± 1.6 (≈ 11.3 mM) | Clear | Clear | Clear | Clear | Clear | Clear | Clear | Clear | Clear |  |  | Clear | Clear | Clear |  | CC(C)[C@H](NC(=O)[C@@H](NC(=O)[C@H](Cc1ccccc1)NC(=O)[C@@H](NC(=O)[C@@H](NC(=O)[C@H](Cc1ccccc1)NC(=O)[C@H](CO)NC(=O)[C@H](C)NC(=O)[C@@H](N)CCCN)[C@@H](C)O)[C@@H](C)O)[C@@H](C)O)C(=O)N[C@H](C(=O)N[C@@H](CCCN)C(=O)N[C@@H](CO)C(N)=O)[C@@H](C)O [SEQ ID NO.10, OASFTTFTVTOS-NH2] (H-[Orn]ASFTTFTVT[Orn]S-NH2) |  |
| 0.62 ± 0.04 (≈ 0.672 mM) | 0.14 ± 0.02 (≈ 0.152 mM) | 0.26 ± 0.07 (≈ 0.282 mM) | 0.25 ± 0.03 (≈ 0.271 mM) | 0.17 ± 0.04 (≈ 0.184 mM) |  |  |  |  |  |  |  |  |  |  |  |  |  |  |  | CC[C@H](C)[C@H](NC(=O)CNC(=O)[C@@H](N)CC(=O)O)C(=O)N[C@@H](Cc1c[nH]c2ccccc12)C(=O)N[C@@H](CCCCN)C(=O)N[C@@H](C)C(=O)N[C@@H](CO)C(=O)N[C@@H](Cc1ccccc1)C(N)=O [SEQ ID NO.21] (H-DGIWKASF-NH2) |  |
| 57.2 ± 9.1 (≈ 49.2 mM) | 2.98 ± 0.1 (≈ 2.57 mM) | 3.49 ± 0.6 (≈ 3.01 mM) | 61.5 ± 1.7 (≈ 53 mM) | 29.1 ± 3.5 (≈ 25.1 mM) | Clear | Clear | Clear | Clear | Clear | Clear | Clear | Clear | Clear |  | Clear | Clear | Clear | Clear | Clear | CC(C)[C@H](N)C(=O)N[C@H](C(=O)N[C@@H](CCCCN)C(=O)N[C@@H](Cc1ccc(O)cc1)C(=O)N[C@@H](Cc1c[nH]c2ccccc12)C(=O)N[C@@H](Cc1ccccc1)C(=O)N[C@@H](Cc1ccc(O)cc1)C(=O)N[C@@H](CCCNC(=N)N)C(N)=O)[C@@H](C)O [SEQ ID NO.22] (H-VTKYWFYR-NH2) | Appearance of solutions ([2]; pH 4.5, 30 mg/ml): Clear; Appearance of solutions ([2]; pH 4.5, 35 mg/ml): Clear; Appearance of solutions ([2]; pH 4.5, 45 mg/ml): Clear; Appearance of solutions ([2]; pH 4.5, 50 mg/ml): Clear; Appearance of solutions ([2]; pH 4.5, 55 mg/ml): Clear; Appearance of solutions ([2]; pH 4.5, 60 mg/ml): Clear; Appearance of solutions ([2]; pH 7.5, 25 mg/ml): Clear; Appearance of solutions ([2]; pH 7.5, 30 mg/ml): Clear; Appearance of solutions ([2]; pH 7.5, 35 mg/ml): Clear; Appearance of solutions ([2]; pH 7.5, 40 mg/ml): Clear; Appearance of solutions ([2]; pH 7.5, 45 mg/ml): Clear; Appearance of solutions ([2]; pH 7.5, 50 mg/ml): Clear; Appearance of solutions ([2]; pH 7.5, 55 mg/ml): Clear; Appearance of solutions ([2]; pH 7.5, 60 mg/ml): Clear; Appearance of solutions ([2]; pH 7.5, 65 mg/ml): Turbid |
